How the values were obtained:
GC1 receptor [1] = test: calcium influx stimulated by excitatory amino acids in primary cultures of cerebellar granule cells (GC1); assay type: cell-based, rat; conditions: for Calcium Influx % of stimulation by 10 μM GLU: 10 μM GLU (Table 2)
Protocol: (§1) Studies described hereinbelow on the usefulness of the compounds were performed on primary cultures of cerebellar granule cells prepared from 8-day old rats according to the procedures as set forth in Wroblewski et al., Neuropharmacology 24(9), 919-921 (1985). These cultures are characterized by the presence of four subtypes of excitatory amino acid receptors, classified on the basis of the coupling of their recognition sites to specific signal transduction systems, as well as according to the pharmacology of their recognition sites. The classification distinguishes between excitatory amino acid recognition sites coupled with PI hydrolysis (Gp) and those coupled with the activation of Ca^2+ (GC). This is disclosed in greater detail in Wroblewski et al. Proc. Natl. Acad. Sci. […], 5068-5072 (1987) GP1 and GC1 receptors are activated by glutamate, aspartate, N-methyl-D-aspartate (NMDA), antagonized by 2-amino-5-phosphonovalerate (APV), and inhibited by Mg^2+ . These two receptor subtypes correspond to the NMDA receptor, however, two distinct receptors must be postulated on the basis of their signal transducing mechanisms. The GP2 receptor is activated by glutamate and quisqualate, and is insensitive to Mg^2 + and APV. The GC2 receptor is activated by kainate and preferentially antagonized by cis-piperidine-2,3-dicarboxylate. The GC2 receptor is also insensitive to Mg^2+ inhibition. These two receptors correspond to the quisqualate and kainate receptors, respectively.
(§2) Cis-azetidine-2,4-dicarboxylic acid and derivatives selectively potentiate signal transduction at the GC1 and GP1 receptors. Referring to Table 1 the influx of calcium stimulated by NMDA, GLU, ASP and […] acting at the GC1 receptor is potentiated by cis-azetidine-2,4-dicarboxylic acid, while the action of KAIN at the GC2 receptor is not affected.

GP1 receptor = test: PI hydrolysis stimulated by GLU in cerebellar granule cells; assay type: cell-based, rat; conditions: 20 μM GLU (Table 2); * = antagonistic activity
Protocol: as §1, §2

NMDA receptor subtype [2] = conditions: icv NMDA; cited from earlier work
GC1 receptor [3] = test: inhibition of ASP-stimulated calcium influx by phencyclidine and its prevention; assay type: cell-based, rat
Protocol: as §1
(§3) Phencyclidine (PCP), once used as an anaesthetic, produces strong psychotropic effects manifested in humans by a state of sensory isolation, hallucinations and confusional states. It is one of the most widely abused drugs in the United States. One of the possible mechanisms of action of PCP involves the noncompetitive inhibition of the signal transduction at excitatory amino acid receptors, through allosteric interaction at a site distinct from the primary transmitter site (see Proc. Natl. Acad. Sci. USA discussed above).

GC2 receptor = test: calcium influx stimulated by kainate at the GC2 receptor in cerebellar granule cells; assay type: cell-based, rat
Protocol: as §1, with “These two receptors correspond to the quisqualate and kainate receptors, respectively.” left out

binding site for PCP = test: [^3 H]PCP radioligand binding; conditions: radioligand binding studies
Excerpt: as §3

GC1 receptor [4] = test: calcium influx stimulated by GLU in the absence and presence of Az5; assay type: cell-based, rat
Protocol: as §1
Azxetidines increase the potency but not the efficacy of GLU action at the GC1 receptor. […] This indicates a 7-fold potentiation of the action of GLU.

NMDA receptor subtype [5] = test: cGMP content in the cerebellum after icv injection of NMDA; assay type: in vivo, rat; design: cGMP: unit not given here
Protocol: The action of the NMDA receptor subtype can be estimated in vivo by measuring the changes in the content of cyclic GMP (cGMP) in the rat cerebellum after intracerebroventricular injections of NMDA. […] In terms of its pharmacology and of its mechanism of signal transduction the active receptor in the above conditions can be compared to the CC1 reporter measured in cultures of cerebellar granule cells.
In two series of experiments rats were injected icv with NMDA together with or without cis-azetidine-2,4-dicarboxylic acid.

COC(=O)[C@@H]1C[C@H](C(=O)OC(C)(C)C)N1 (relative stereo) [Az1, cis-azetidine-2,4-dicarboxylic acid t-butyl methyl ester]
Calcium Influx % of stimulation by 10 μM GLU (GC1 receptor [1]): 107%
% activity (potentiation of calcium influx) (GC1 receptor [1]; agonist Glu 10 μM (Table 3)): 107%
PI hydrolysis % of stimulation by 20 μM GLU (GP1 receptor): 117%

COC(=O)[C@H]1C[C@H](C(=O)OC(C)(C)C)N1 (relative stereo) [Az2, trans-azetidine-2,4-dicarboxylic acid-t-butyl methyl ester]
Calcium Influx % of stimulation by 10 μM GLU (GC1 receptor [1]): 104%

CC(C)(C)OC(=O)[C@H]1C[C@@H](C(=O)O)N1 (relative stereo) [Az3, cis-azetidine-2,4-dicarboxylic acid mono-t-butyl ester]
Calcium Influx % of stimulation by 10 μM GLU (GC1 receptor [1]): 141%
% activity (potentiation of calcium influx) (GC1 receptor [1]; agonist Glu 10 μM (Table 3)): 141%
% activity (potentiation of calcium influx) (GC1 receptor [1]; agonist Glu 20 μM (Table 3)): 136%
PI hydrolysis % of stimulation by 20 μM GLU (GP1 receptor): 125%

CC(C)(C)OC(=O)[C@H]1C[C@H](C(=O)O)N1 (relative stereo) [Az4, trans-azetidine-2,4-dicarboxylic acid mono-t-butyl ester]
Calcium Influx % of stimulation by 10 μM GLU (GC1 receptor [1]): 100%
PI hydrolysis % of stimulation by 20 μM GLU (GP1 receptor): 109%

O=C(O)[C@H]1C[C@H](C(=O)O)N1 (relative stereo) [Az6, trans-azetidine-2,4-dicarboxylic acid]
Calcium Influx % of stimulation by 10 μM GLU (GC1 receptor [1]): 103%
PI hydrolysis % of stimulation by 20 μM GLU (GP1 receptor): 83%

NC(=O)[C@@H]1C[C@H](C(=O)O)N1 (relative stereo) [Az8, cis-4-carbamoylazetidine-2-carboxylic acid]
% activity (potentiation of calcium influx) (GC1 receptor [1]; agonist Asp 20 μM (Table 3)): 150%

COC(=O)[C@H]1C[C@@H](C(=O)O)N1 (relative stereo) [Az11, cis-azetidine-2,4-dicarboxylic acid methyl ester]
% activity (potentiation of calcium influx) (GC1 receptor [1]; agonist Glu 10 μM (Table 3)): 122%

O=C(O)[C@H]1C[C@@H](CO)N1 (relative stereo) [Az13, cis-4-(hydroxymethyl)azetidine-2-carboxylic acid]
% activity (potentiation of calcium influx) (GC1 receptor [1]; agonist Asp 10 μM (Table 3)): 159%

NC(CCCP(=O)(O)O)C(=O)O (centres unmarked) [APV, 2-amino-5-phosphonovaleric acid]
effect on increases in cGMP content induced by NMDA (NMDA receptor subtype [2]): antagonized

N[C@@H](CC(=O)O)C(=O)O [ASP, Aspartate, reference compound]
ASP-stimulated calcium influx (GC1 receptor [3]; ASP 50 μM, no PCP): 31.3 ± 3.4 nmol ^45 Ca^2+ /mg protein

O=C(O)[C@@H]1C[C@H](C(=O)O)N1 [Az5, cis-azetidine-2,4-dicarboxylic acid]
Calcium Influx % of stimulation by 10 μM GLU (GC1 receptor [1]): 207%
effect on calcium influx stimulated by NMDA, GLU, ASP and QUIS (GC1 receptor [1]; GC1 receptor): potentiated
% activity (potentiation of calcium influx) (GC1 receptor [1]; agonist Asp 10 μM (Table 3)): 196%
% activity (potentiation of calcium influx) (GC1 receptor [1]; agonist Asp 20 μM (Table 3)): 141%
Percent Activity (potentiation of calcium influx) (GC1 receptor [1]; agonist Aspartate (ASP) 20 μM): 144%
% activity (potentiation of calcium influx) (GC1 receptor [1]; agonist Glu 10 μM (Table 3)): 207%
% activity (potentiation of calcium influx) (GC1 receptor [1]; agonist Glu 20 μM (Table 3)): 157%
Percent Activity (potentiation of calcium influx) (GC1 receptor [1]; agonist Glutamate (GLU) 20 μM): 169%
Percent Activity (potentiation of calcium influx) (GC1 receptor [1]; agonist NMDA 20 μM): 188%
Percent Activity (potentiation of calcium influx) (GC1 receptor [1]; agonist Quisqualate (QUIS) 20 μM): 124%
effect on the action of KAIN (GC2 receptor; GC2 receptor): not affected
Percent Activity (potentiation of calcium influx) (GC2 receptor; agonist Kainate 20 μM): 104%
PI hydrolysis % of stimulation by 20 μM GLU (GP1 receptor): 124%
ASP-stimulated calcium influx (GC1 receptor [3]; ASP 50 μM + Az5 50 μM, PCP 20 nM): 57.2 ± 3.2 nmol ^45 Ca^2+ /mg protein
ASP-stimulated calcium influx (GC1 receptor [3]; ASP 50 μM + Az5 50 μM, PCP 50 nM): 32.2 ± 1.3 nmol ^45 Ca^2+ /mg protein
ASP-stimulated calcium influx (GC1 receptor [3]; ASP 50 μM + Az5 50 μM, PCP 100 nM): 13.3 ± 0.3 nmol ^45 Ca^2+ /mg protein
ASP-stimulated calcium influx (GC1 receptor [3]; ASP 50 μM + Az5 50 μM, no PCP): 64.5 ± 2.6 nmol ^45 Ca^2+ /mg protein
action of PCP on ASP-stimulated signal transduction (GC1 receptor [3]; with PCP): exhibits the ability to decrease the action of PCP on ASP-stimulated signal transduction
displacement of specific [^3 H]PCP binding (binding site for PCP): failed to displace the specific binding of [^3 H]PCP
potentiation of the action of GLU (GC1 receptor [4]; 50 μM Az5, from EC50 of GLU): 7 fold
cGMP (NMDA receptor subtype [5]; 5 min, Az5 2 μg): 6.8 ± 0.8
cGMP % Control (NMDA receptor subtype [5]; 5 min, Az5 2 μg): 142 % Control
cGMP (NMDA receptor subtype [5]; 5 min, NMDA + Az5 together): 16.1 + 2.9
cGMP % Control (NMDA receptor subtype [5]; 5 min, NMDA + Az5 together): 334 % Control
cGMP (NMDA receptor subtype [5]; 10 min, Az5 10 μg): 14.9 ± 1.3
cGMP % Control (NMDA receptor subtype [5]; 10 min, Az5 10 μg): 192 % Control
cGMP (NMDA receptor subtype [5]; 10 min, NMDA + Az5 together): 16.5 + 2.8
cGMP % Control (NMDA receptor subtype [5]; 10 min, NMDA + Az5 together): 211 % Control
effect on action of endogenous receptor agonist and injected NMDA (NMDA receptor subtype [5]; both series): potentiated the action of the endogenous receptor agonist as well as the action of injected NMDA

COC(=O)[C@@H]1C[C@H](C(=O)OC)N1 [Az7, cis-azetidine-2,4-dicarboxylic acid dimethyl ester]
% activity (potentiation of calcium influx) (GC1 receptor [1]; agonist Glu 50 μM (Table 3)): 68%

NC(=O)[C@@H]1C[C@H](C(N)=O)N1 [Az9, cis-azetidine-2,4-dicarboxamide]
% activity (potentiation of calcium influx) (GC1 receptor [1]; agonist Asp 20 μM (Table 3)): 106%

O=C(O)[C@H]1C[C@@H](C(=O)O)N1Cc1ccccc1 [Az10, cis-N-benzylazetidine-2,4-dicarboxylic acid]
% activity (potentiation of calcium influx) (GC1 receptor [1]; agonist Asp 10 μM (Table 3)): 121%

O=C(O)[C@@H]1CCN1 [Az12, L-2-azetidinecarboxylic acid, reference compound]
% activity (potentiation of calcium influx) (GC1 receptor [1]; agonist Glu 20 μM (Table 3)): 110%

N[C@@H](CCC(=O)O)C(=O)O [GLU, Glutamate]
EC50 (GC1 receptor [4]; in the absence of Az5): 51 µM
EC50 (GC1 receptor [4]; in the presence of 50 μM Az5): 7 µM

CN[C@H](CC(=O)O)C(=O)O [NMDA, N-methyl-D-aspartate, reference compound]
cGMP (NMDA receptor subtype [5]; 5 min, NMDA 2 μg): 5.6 ± 0.8
cGMP % Control (NMDA receptor subtype [5]; 5 min, NMDA 2 μg): 136 % Control
cGMP (NMDA receptor subtype [5]; 10 min, NMDA 1 μg): 10.5 ± 2.3
cGMP % Control (NMDA receptor subtype [5]; 10 min, NMDA 1 μg): 135 % Control

c1ccc(C2(N3CCCCC3)CCCCC2)cc1 [PCP, phencyclidine, reference compound]
ASP-stimulated calcium influx (GC1 receptor [3]; ASP 50 μM, PCP 20 nM): 23.0 ± 1.7 nmol ^45 Ca^2+ /mg protein
ASP-stimulated calcium influx (GC1 receptor [3]; ASP 50 μM, PCP 50 nM): 9.2 ± 0.5 nmol ^45 Ca^2+ /mg protein
ASP-stimulated calcium influx (GC1 receptor [3]; ASP 50 μM, PCP 100 nM): 0.7 ± 0.1 nmol ^45 Ca^2+ /mg protein

From patent US4946839A, “Azetidine derivatives, compositions and methods of treating” (priority 1987, dated 1990)
